Read-outs that look alike come from different tables or passages of the source.
Legend:
[1] = system: Human Pancreatic Cancer Cell Line Panc1; assay: Cell death assay (propidium iodide/Hoechst) in Panc1 cells with or without camptothecin; assay type: cell-based; conditions: 72 hours, % cell death by propidium iodide/Hoechst
In short: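 Panc1 cells, 10,000/well, exposed 72 h at 37 C to compound (29 uM to 0.13 uM, 0.3% DMSO) with or without 3 uM camptothecin. Propidium iodide and Hoechst staining imaged by fluorescence microscopy; % cell death = PI-stained/Hoechst-stained cells × 100.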

Bcl-2 = Bcl-2 (Homo sapiens, UniProt P10415); assay: Bcl-2 binding affinity analysis (fluorescence polarization binding assay)
In short: (§1)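 Sensitive, quantitative cell-free test: compound incubated with protein, then polarization of emitted fluorescence recorded to gauge affinity.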

Bcl-xL = Bcl-xL (Homo sapiens, UniProt Q07817); assay: Bcl-xL binding affinity analysis (fluorescence polarization binding assay); parameters: scale not given here
In short: as §1

[2] = system: RL Human Follicular Lymphoma Cell Line; assay: Alamar blue cytotoxicity assay in RL cells; assay type: cell-based; conditions: 72 h incubation, read-out: Bcl RL Alamar Blue IC50
In short: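 Compounds tested at 29 uM to 0.013 uM final (0.3% DMSO) on 30,000 RL cells per well. After 72 h at 37 C, 5% CO2, viability read with Alamar blue.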

[3] = Homo sapiens, PANC-1, without camptothecin, read-out: Panc1 − Cpt IC50
[4] = with 3 uM Camptothecin, read-out: Panc1 + Cpt IC50

Bcl-2, sequence (P10415 whole entry): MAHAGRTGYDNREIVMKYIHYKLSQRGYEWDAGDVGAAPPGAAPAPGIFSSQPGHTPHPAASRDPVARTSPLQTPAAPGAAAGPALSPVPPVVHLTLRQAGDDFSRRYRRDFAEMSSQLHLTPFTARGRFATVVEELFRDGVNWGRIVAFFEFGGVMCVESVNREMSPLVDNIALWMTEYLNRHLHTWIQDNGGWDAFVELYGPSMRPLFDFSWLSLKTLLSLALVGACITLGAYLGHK
Bcl-xL, sequence (Q07817 whole entry): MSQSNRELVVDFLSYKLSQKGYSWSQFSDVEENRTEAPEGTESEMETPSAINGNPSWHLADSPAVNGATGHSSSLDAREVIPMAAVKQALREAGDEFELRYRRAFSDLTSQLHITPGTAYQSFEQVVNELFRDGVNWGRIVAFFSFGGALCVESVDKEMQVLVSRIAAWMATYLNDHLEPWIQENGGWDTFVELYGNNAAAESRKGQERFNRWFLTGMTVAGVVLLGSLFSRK

CC(C)CC(CN(C)C)N(Cc1cccc(CN2OC(CO)C(C(C)O)C2C(=O)NC2CC3CC(C2C)C3(C)C)c1)Cc1c(F)cccc1C(F)(F)F (centres unmarked) [Compound 339]
IC50 [1, 3]: > 2.5 µM | IC50 [1, 4]: > 2.5 µM | Ki (Bcl-2): < 0.8 µM | Bcl-XL binding affinity Ki (Bcl-xL): ♯ | IC50 ([2]; Homo sapiens): < 2 µM

COc1c(CN2O[C@@H](CO)[C@@H]([C@H](C)O)[C@H]2C(=O)N[C@H]2C[C@H]3C[C@@H]([C@@H]2C)C3(C)C)cccc1-c1cccc(C(=O)N[C@H](CN(C)C)C(C)C)c1 [Compound 488]
IC50 [1, 3]: > 2.5 µM | IC50 [1, 4]: > 2.5 µM | Ki (Bcl-2): < 0.8 µM | Bcl-XL binding affinity Ki (Bcl-xL): ♯ | IC50 ([2]; Homo sapiens): 2 to 5 µM

COc1ccccc1CN(Cc1cccc(CN2OC(CO)C(C(C)O)C2C(=O)NC2CC3CC(C2C)C3(C)C)c1)C(CC(C)C)CN(C)C (centres unmarked) [Compound 301]
IC50 [1, 3]: > 2.5 µM | IC50 [1, 4]: > 2.5 µM | Ki (Bcl-2): < 0.8 µM | Bcl-XL binding affinity Ki (Bcl-xL): ♯ | IC50 ([2]; Homo sapiens): < 2 µM

CC(C)CC(CN(C)C)N(Cc1cccc(CN2OC(CO)C(C(C)O)C2C(=O)NC2CC3CC(C2C)C3(C)C)c1)Cc1ccccc1OC(F)(F)F (centres unmarked) [Compound 320]
IC50 [1, 3]: > 2.5 µM | IC50 [1, 4]: 1.8 to 2.5 µM | Ki (Bcl-2): < 0.8 µM | Bcl-XL binding affinity Ki (Bcl-xL): ♯ | IC50 ([2]; Homo sapiens): < 2 µM

CC(O)C1C(CO)ON(Cc2cccc(CNC(CC3CCCCCC3)CN(C)C)c2)C1C(=O)NC1CC2CC(C1C)C2(C)C (centres unmarked) [Compound 472]
IC50 [1, 3]: > 2.5 µM | IC50 [1, 4]: > 2.5 µM | Ki (Bcl-2): < 0.8 µM | Bcl-XL binding affinity Ki (Bcl-xL): ♯ | IC50 ([2]; Homo sapiens): 2 to 5 µM

CC(O)C1C(CO)ON(Cc2cccc(CN(Cc3ccccc3)C(CN(C)C)CC(C)(C)C)c2)C1C(=O)NC1CC2CC(C1C)C2(C)C (centres unmarked) [Compound 414]
IC50 [1, 3]: > 2.5 µM | IC50 [1, 4]: 1.8 to 2.5 µM | Ki (Bcl-2): < 0.8 µM | Bcl-XL binding affinity Ki (Bcl-xL): ♯ | IC50 ([2]; Homo sapiens): 2 to 5 µM

COc1c(CN2O[C@@H](CO)[C@@H]([C@H](C)O)[C@H]2C(=O)N[C@H]2C[C@H]3C[C@@H]([C@@H]2C)C3(C)C)cccc1-c1cccc(C(=O)N[C@H](CN(C)C)C2CCCCC2)c1 [Compound 480]
IC50 [1, 3]: > 2.5 µM | IC50 [1, 4]: 1.3 to 1.8 µM | Ki (Bcl-2): < 0.8 µM | Bcl-XL binding affinity Ki (Bcl-xL): ♯ | IC50 ([2]; Homo sapiens): 2 to 5 µM

CC(O)C1C(CO)ON(Cc2cccc(CNC(CC3CCCCC3)CN(C)C)c2)C1C(=O)NC1CC2CC(C1C)C2(C)C (centres unmarked) [Compound 444]
IC50 [1, 3]: > 2.5 µM | IC50 [1, 4]: > 2.5 µM | Ki (Bcl-2): < 0.8 µM | Bcl-XL binding affinity Ki (Bcl-xL): ♯ | IC50 ([2]; Homo sapiens): 2 to 5 µM

CC(C)CC(CN(C)C)N(Cc1ccccc1)Cc1cccc(CN2OC(CO)C(C(C)O)C2C(=O)NC2CC3CC(C2C)C3(C)C)c1 (centres unmarked) [Compound 311]
IC50 [1, 3]: > 2.5 µM | IC50 [1, 4]: 1.8 to 2.5 µM | Ki (Bcl-2): < 0.8 µM | Bcl-XL binding affinity Ki (Bcl-xL): ♯ | IC50 [2]: 2 to 5 µM

CC(C)CC(CN(C)C)N(Cc1cccc(CN2OC(CO)C(C(C)O)C2C(=O)NC2CC3CC(C2C)C3(C)C)c1)Cc1ccccc1C#N (centres unmarked) [Compound 314]
IC50 [1, 3]: > 2.5 µM | IC50 [1, 4]: > 2.5 µM | Ki (Bcl-2): < 0.8 µM | Bcl-XL binding affinity Ki (Bcl-xL): ♯ | IC50 ([2]; Homo sapiens): < 2 µM

COc1c(CN2O[C@@H](CO)[C@@H]([C@H](C)O)[C@H]2C(=O)N[C@H]2C[C@H]3C[C@@H]([C@@H]2C)C3(C)C)cccc1-c1cccc(C(=O)N[C@@H](CC2CCCCC2)CN(C)C)c1 [Compound 487]
IC50 [1, 3]: > 2.5 µM | IC50 [1, 4]: > 2.5 µM | Ki (Bcl-2): < 0.8 µM | Bcl-XL binding affinity Ki (Bcl-xL): ♯ | IC50 ([2]; Homo sapiens): 2 to 5 µM

CC(C)C[C@@H](CN(C)C)N(Cc1cccc(CN2O[C@@H](CO)C([C@H](C)O)[C@H]2C(=O)N[C@H]2C[C@H]3C[C@@H]([C@@H]2C)C3(C)C)c1)Cc1ccccc1O (some centres unmarked) [Compound 300]
IC50 [1, 3]: > 2.5 µM | IC50 [1, 4]: 1.8 to 2.5 µM | Ki (Bcl-2): < 0.8 µM | Bcl-XL binding affinity Ki (Bcl-xL): ♯ | IC50 ([2]; Homo sapiens): < 2 µM

CC(O)C1C(CO)ON(Cc2cccc(CN(CCN(C)C)CC3CCOC3)c2)C1C(=O)NC1CC2CC(C1C)C2(C)C (centres unmarked) [Compound 391]
IC50 [1, 3]: > 2.5 µM | IC50 [1, 4]: > 2.5 µM | Ki (Bcl-2): < 0.8 µM | Bcl-XL binding affinity Ki (Bcl-xL): ♯ | IC50 ([2]; Homo sapiens): > 5 µM
